In article PMC6896740, “Safety, tolerability, pharmacokinetics, and pharmacodynamics of PF-06650833, a selective interleukin-1 receptor-associated kinase 4 (IRAK4) inhibitor, in single and multiple ascending dose randomized phase 1 studies in healthy subjects” (Arthritis Research & Therapy, 2019):

Experiment: clinical
Details: human, in vivo; for AUC(0-t): AUClast; for Tmax: median (range); for Vd/F: Vz/F
Description: Study 1 (B7921001; NCT02224651) was a 96-day, phase 1, within-cohort, randomized, double-blind, sponsor-open, placebo-substitution, five-period crossover, SAD study in healthy adult subjects (Fig. 1a). Subjects were sequentially enrolled into four cohorts of ten subjects each. Within each cohort, the subjects were randomized into a maximum of five periods. Within each period, eight subjects and two subjects were randomized to receive PF-06650833 and placebo, respectively. In this placebo-substitution design, all subjects within a cohort received one or more doses of PF-06650833 and/or placebo. Single oral doses of PF-06650833 IR formulations from 1 to 6000 mg, and MR formulations from 30 to 300 mg, were administered in fasted (overnight fast of ≥ 10 h) and/or fed (high-fat breakfast meal) states. Doses were escalated sequentially by period within each cohort (see Fig. 1a for final dosing scheme), based upon the evaluation of ≥ 48 h of safety and tolerability for all subjects and ≥ 8 h of PK data for at least six subjects receiving PF-06650833 and one subject receiving placebo. Dose escalation was to cease when either the limits of safety and/or tolerability were reached, the projected exposure at the subsequent dose exceeded the toxicokinetic limit (TK) established based on the no observable adverse effect level (NOAEL) in relevant animal studies, or a plateau in exposure was reached.
The effects of food on the plasma PK profile of the IR and MR formulations were explored in cohorts 1 and 3, respectively, by administering 30 mg doses of PF-06650833 in a fasted state and after a high-fat meal. A 1000-mg dose of the IR formulation was also tested in cohort 3 in an attempt to identify a maximum tolerated dose (MTD). Since TK limits were not reached with the IR formulation at doses up to 1000 mg, the IR doses were escalated to 2000 and 6000 mg with a high-fat meal in cohort 4 (Fig. 1a).
For both studies, samples of blood (and urine in study 2) were taken for evaluation of PK/PD parameters (see Additional file 1: Supplemental Methods). PK samples were obtained at the nominal time relative to dosing (± 10%). Plasma and urine samples were analyzed using validated, sensitive, and specific liquid chromatography tandem mass spectrometric methods (at Pfizer Inc., Groton, CT, USA, for study 1 and at Worldwide Pharmacokinetics, Dynamics and Metabolism, Cambridge, MA, USA, for study 2). The lower limit of quantification for PF-06650833 in plasma was 0.0500 ng/mL. The lower limit of quantification for PF-06650833 in urine was 1.00 ng/mL. Serum samples were also analyzed for hsCRP, and plasma samples were analyzed for 4β-hydroxycholesterol and cholesterol.
PK parameters were calculated using non-compartmental analysis of concentration-time data. For study 1 only, data from cohort 1 (period 4 [IR 30 mg] versus period 5 [IR 30 mg + food]) and cohort 3 (period 2 [MR 30 mg] versus period 3 [MR 30 mg + food]) were used to estimate the effect of food intake. Cmax and AUC were calculated for each subject and treatment, with and without food, after which a within-subject difference could be found between fed (high-fat meal) and fasted doses. Analysis of covariance was used to model these within-subject differences and to calculate 95% confidence intervals (CIs) for the differences for each dose (IR 30 mg and MR 30 mg). For study 2 only, the amounts of PF-06650833 in urine and renal clearance were listed and summarized descriptively. As part of the routine safety laboratory monitoring, the presence of any atypical crystals in urine specimens was semi-quantitatively assessed microscopically by typical histopathologic methods and scored as numbers of crystals per high power field (hpf); higher abundance (moderate or many) was defined as ≥ 15/hpf. No formal interim analyses were conducted.
4 In both studies, subjects were assigned to dose groups according to a pre-defined
5 randomization schedule. Each subject was given a unique Electronic Data Capture […]

CC[C@@H]1[C@H](F)C(=O)N[C@@H]1COc1nccc2cc(C(N)=O)c(OC)cc12 [PF-06650833, 1-{[(2S,3S,4S)-3-Ethyl-4-fluoro-5-oxopyrrolidin-2-yl]methoxy}-7-methoxyisoquinoline-6-carboxamide]
Mean terminal half-life t½: 9.4 to 11.7 h
CL/F, geometric mean (%CV) (1 mg): 194.3 (37) L/h
AUC(0-inf) (1 mg, AUCinf, geometric mean (%CV)): 5.14 ng·h/mL
AUC(0-t) (1 mg, geometric mean (%CV)): 4.92 ng·h/mL
Cmax (1 mg, geometric mean (%CV)): 1.75 ng/mL
MRT (1 mg, mean ± SD): 3.12 ± 0.525 h
Tmax (1 mg): 1 h
Vd/F (1 mg, geometric mean (%CV)): 517 L
half-life (1 mg, t½, mean ± SD): 112 ± 14.4 min
CL/F, geometric mean (%CV) (3 mg): 173.1 (49) L/h
AUC(0-inf) (3 mg, AUCinf, geometric mean (%CV)): 17.3 ng·h/mL
AUC(0-t) (3 mg, geometric mean (%CV)): 17 ng·h/mL
Cmax (3 mg, geometric mean (%CV)): 5.54 ng/mL
MRT (3 mg, mean ± SD): 3.4 ± 0.622 h
Tmax (3 mg): 0.525 h
Vd/F (3 mg, geometric mean (%CV)): 567 L
half-life (3 mg, t½, mean ± SD): 140 ± 40.2 min
CL/F, geometric mean (%CV) (10 mg): 121.0 (48) L/h
AUC(0-inf) (10 mg, AUCinf, geometric mean (%CV)): 82.7 ng·h/mL
AUC(0-t) (10 mg, geometric mean (%CV)): 81.9 ng·h/mL
Cmax (10 mg, geometric mean (%CV)): 22.6 ng/mL
MRT (10 mg, mean ± SD): 4.31 ± 0.787 h
Tmax (10 mg): 1 h
Vd/F (10 mg, geometric mean (%CV)): 618 L
half-life (10 mg, t½, mean ± SD): 212 ± 8.34 min
AUCinf (food-effect analysis) (30 mg): 211.3 ng·h/mL
AUCinf, geometric mean (%CV) (30 mg): 206.4 (29) ng•h/mL
AUClast, geometric mean (%CV) (30 mg): 203.7 (29) ng•h/mL
AUC(0-inf) (30 mg, AUCinf (food-effect analysis)): 261 ng·h/mL
AUC(0-inf) (30 mg, AUCinf, geometric mean (%CV)): 263 ng·h/mL
AUC(0-t) (30 mg, geometric mean (%CV)): 249 ng·h/mL
AUCinf, geometric mean (%CV) (100 mg): 646.4 (48) ng•h/mL
AUClast, geometric mean (%CV) (100 mg): 549.4 (38) ng•h/mL
MRT, mean ± SD (100 mg): 11.2 ± 4.81 h
t½, mean ± SD (100 mg): 15.0 ± 5.22 h
AUC(0-inf) (100 mg, AUCinf, geometric mean (%CV)): 839 ng·h/mL
AUC(0-t) (100 mg, geometric mean (%CV)): 762 ng·h/mL
MRT (100 mg, mean ± SD): 19.3 ± 5.73 h
half-life (100 mg, t½, mean ± SD): 561 ± 217 min
AUCinf, geometric mean (%CV) (300 mg): 1477 (71) ng•h/mL
AUClast, geometric mean (%CV) (300 mg): 1436 (57) ng•h/mL
Tmax, median (range) (300 mg): 2 (0.500–2.00) h
Vz/F, geometric mean (%CV) (300 mg): 5310 (69) L
t½, mean ± SD (300 mg): 19.9 ± 9.54 h
AUC(0-inf) (300 mg, AUCinf, geometric mean (%CV)): 2040 ng·h/mL
AUC(0-t) (300 mg, geometric mean (%CV)): 1970 ng·h/mL
Tmax (300 mg): 4 h
Vd/F (300 mg, geometric mean (%CV)): 6820 L
half-life (300 mg, t½, mean ± SD): 2330 ± 1270 min
CL/F, geometric mean (%CV) (1000 mg): 411.4 (40) L/h
AUC(0-inf) (1000 mg, AUCinf, geometric mean (%CV)): 2430 ng·h/mL
AUC(0-t) (1000 mg, geometric mean (%CV)): 2270 ng·h/mL
Cmax (1000 mg, geometric mean (%CV)): 309 ng/mL
MRT (1000 mg, mean ± SD): 18.7 ± 4.37 h
Tmax (1000 mg): 0.75 h
Vd/F (1000 mg, geometric mean (%CV)): 14600 L
half-life (1000 mg, t½, mean ± SD): 2690 ± 4180 min
half-life (Mean terminal half-life t½): 612 to 900 min
